Data reported in patent US5981256A, “Recombinant stratum corneum chymotryptic enzyme (SCCE)” (priority 1993, dated 1999).
Square brackets hold non-standard residues; d marks the D form. Peptide text beside a SMILES is read from it. * marks the point of attachment. Sta = CC(C)C[C@H](N)[C@@H](O)CC(=O)O; Isovaleryl = CC(C)CC(=O)*

Columns and labels:
[1] = target: proteinase associated with plantar stratum corneum cells (native human stratum corneum chymotryptic enzyme, SCCE) (Homo sapiens, UniProt P49862); experiment: Hydrolysis of S-2586 by the proteinase associated with plantar stratum corneum cells (suspended cells); settings: for Activity (%) (±SD, n = 3), hydrolysis of S-2586: pH 8, control = 100
Sequence of proteinase associated with plantar stratum corneum cells (native human stratum corneum chymotryptic enzyme, SCCE) (P49862 30-253): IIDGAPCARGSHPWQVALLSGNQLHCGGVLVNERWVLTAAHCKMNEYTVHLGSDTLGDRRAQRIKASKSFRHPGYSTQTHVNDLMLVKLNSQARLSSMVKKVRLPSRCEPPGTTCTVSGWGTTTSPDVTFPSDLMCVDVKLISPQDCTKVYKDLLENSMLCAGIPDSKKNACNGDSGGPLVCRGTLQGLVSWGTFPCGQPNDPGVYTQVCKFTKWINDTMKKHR

[2] = test system: plantar stratum corneum; experiment: Cell release (cell shedding) from plantar stratum corneum in vitro; format: cell-based; settings: Homo sapiens, 16 hours at 37° C., mean and SD for five tissue pieces
Protocol: A method to quantify the cell shedding was then developed, which allowed studies on the effects of various parameters such as temperature, pH, and enzyme inhibitors. Cylinders of plantar stratum corneum with diameter 3 mm were prepared with a biopsy punch from flakes of tissue taken and freed from loosely attached surface cells as described above in 1.1. […] The remaining tissue was removed and placed in fresh media for continued incubation. Tubes with released cells were centrifuged for 2 min at 5000 g to collect the cells. The cell pellets were washed once with 0.5 ml of phosphate buffered saline and then treated at 60° C. for 1.5 hours with 0.6 ml of 1 M sodium hydroxide. The alkali soluble protein was quantified according to Lowry et al., 1951, and taken as a measure of the amount of released cells.

[3] = target: T1, 25 kD caseinolytic enzyme of plantar corneocytes (native stratum corneum chymotryptic enzyme, SCCE) (Homo sapiens, UniProt P49862); experiment: Zymography (SDS-PAGE with co-polymerized casein) of extracts of plantar corneocytes; format: biochemical; settings: pH 8
T1 construct: from tissue; host or cells: human plantar stratum corneum, dissociated corneocytes (suspended cells, SDS-extract or KCl-extract)
T1 sequence (P49862 30-253): as above
Protocol: C: The effect of inhibitors. sc=SDS-extract of plantar corneocytes; c=bovine chymotrypsin; t=bovine trypsin. The inhibitors were present during pretreatment with Triton X-100 and the subsequent incubation. […] Leupeptin and chymostatin were added as solutions in dimethylsulphoxide (DMSO). Buffer for pretreatment and incubation=0.1 M Tris-HCl pH 8 with final concentration of DMSO 1% (v/v). Other conditions as in A.
SDS-PAGE and Coomassie blue-staining (A) and zymography after SDS-PAGE with co-polymerized casein (B) of fractions 2, 6, and 10 from the chromatogram shown in FIG. 10. Molecular weight markers to the left.
Therefore experiments with zymography were performed. For this reason KCl extracts of corneocytes were prepared for electrophoresis according to Laemmli (Laemmli 1970) but with no reducing agent in the sample buffer and with no heating of the samples. Samples were also prepared by means of extraction of dissociated plantar corneocytes with Laemmli's sample buffer without reducing agent at room temperature. For zymography a modification of the procedure of Horie et al. (Horie et al. 1984) was adopted. Polyacrylamide gel elctrophoresis in the presence of sodium dodecyl sulphate (SDS-PAGE) was carried out according to Laemmli in 12.5% gels with 1% co-polymerized heat-denatured casein. […]

[4] = test system: plantar stratum corneum; settings: cited from earlier work
[5] = test system: desmoglein I (DG I) in plantar stratum corneum; experiment: Degradation of desmoglein I (DG I) in plantar stratum corneum during cell shedding in vitro (immunoblot); format: cell-based, human; settings: inhibitor 330 μM; 24 hours
Protocol: The fate of desmoglein I (DG I) during cell shedding in vitro from plantar stratum corneum was studied. Plantar stratum corneum was incubated as described above in 1.1, and still cohesive tissue was separated from dissociated cells. Cells and tissue were extracted in a buffer containing 0.1 M Tris-HCl pH 9, 9 M urea, 2% sodium dodecylsulphate, 1% mercaptoethanol, 1 ml buffer per 20 mg of tissue, for 15 hours at 37° C. The extracts were prepared for polyacrylamide gel electrophoresis in 7.5% gels in the presence of sodium dodecyl sulphate (SDS-PAGE) according to Laemmli (Laemmli, 1970), followed by electrophoretic transfer (Towbin et al., 1979) to a nitrocellulose membrane (Bio-Rad, Richmond, Calif.) which was probed with a rabbit polyclonal antiserum prepared against DG I purified from bovine muzzles (Gorbsky et al. 1985). Bound antibodies were detected with alkaline phosphatase conjugated goat anti-rabbit immunoglobulins (Bio-Rad, Richmond, Calif.) (Blake et al. 1984).
SDS-PAGE and immunoblotting was performed as described above. Densitometric scannings of the immunblots were carried out in a Shimadzu CS-9000 flying spot scanner (Shimadzu, Kyoto, Japan) with reflected light at 560 nm in the zigzag mode.

[6] = target: T2, native stratum corneum chymotryptic enzyme (SCCE), KCl-extract of dissociated plantar corneocytes (Homo sapiens, UniProt P49862); experiment: Proteinase assay with chromogenic substrate S-2586, native SCCE; format: biochemical; settings: S-2586 1.2 mM, pH 8.0, FIG. 9B
T2 construct: from tissue; host or cells: human plantar stratum corneum, dissociated corneocytes (suspended cells, SDS-extract or KCl-extract)
T2 sequence (P49862 30-253): as above
Protocol: (§1) Stock solution of MeO-Suc-Arg-Pro-Tyr-pNA (S-2586) was prepared in distilled water, of Suc-Ala-Ala-Pro-Phe-pNA (SEQ ID NO:11) (Boehringer, Mannheim, Germany) in 1-methyl-2-pyrrolidone (final concentration of solvent in incubation mixtures 4%) and of chymostatin in dimethyl sulphoxide (final concentration of solvent in incubation mixtures 1%). Cathepsin G from purulent human sputum was obtained from E. Lotti, Geneva, Switzerland. The source of SCCE was KCl-extract of dissociated plantar corneocytes prepared as described above.
(§2) Incubations were performed at 37° C. in microtiter plates. The total incubation volume was 135 μl. Each incubation mixture contained Tris-HCl pH 8.0 (final concentration 0.08 M), KCl (final concentration 0.2 M), 100 μl substrate solution, 25 μl enzyme source (appropriately diluted in 0.1 M Tris-HCl pH 8.0, 1.0 M KCl) and 10 μl inhibitor solution.
(§3) In FIG. 9, A-C, MeO-Suc-Arg-Pro-Tyr-pNA (S-2586, initial concentration 1.2 mM) was used as substrate. In D the initial concentration of both substrates was 1.2 mM.

[7] = target: bovine chymotrypsin (Bos taurus, UniProt P00766); experiment: Proteinase assay with chromogenic substrate S-2586, bovine chymotrypsin; format: biochemical; settings: S-2586 1.2 mM; pH 8.0; 37° C.; FIG. 9B
Protocol: as §1, §2, §3

[8] = target: T3, human cathepsin G (from purulent human sputum) (Homo sapiens, UniProt P08311); experiment: Proteinase assay with chromogenic substrate S-2586, human cathepsin G; format: biochemical; settings: S-2586 1.2 mM; pH 8.0; 37° C.; FIG. 9B
T3 construct: Cathepsin G from purulent human sputum; tissue E. Lotti, Geneva, Switzerland; host or cells: purulent human sputum
T3 sequence (P08311 21-244 limits assumed): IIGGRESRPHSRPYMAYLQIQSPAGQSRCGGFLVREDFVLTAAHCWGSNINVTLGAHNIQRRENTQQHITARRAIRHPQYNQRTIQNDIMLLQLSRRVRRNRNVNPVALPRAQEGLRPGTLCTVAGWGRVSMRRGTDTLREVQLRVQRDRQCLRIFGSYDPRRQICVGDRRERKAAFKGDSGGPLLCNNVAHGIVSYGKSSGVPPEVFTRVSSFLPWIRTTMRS
Protocol: as §1, §2, §3

[9] = target: T4, recombinant human stratum corneum chymotryptic enzyme (rSCCE), SEQ ID NO:2 (Homo sapiens, UniProt P49862); experiment: S-2586 hydrolysing activity of recombinant SCCE with inhibitors; format: biochemical; settings: no inhibitor = 100
T4 construct: made in house; host or cells: murine C127 cells (ATCC CRL 1616), vector pS507
T4 sequence (P49862 30-253): as the sequence (P49862 30-253) above
Protocol: as §2, §3
The experimental design was as outlined in Example 3.2.

[10] = pH 8, read-out: Activity (%) (±SD, n = 3), hydrolysis of S-2586

## O=C(O)CN(CCN(CC(=O)O)CC(=O)O)CC(=O)O [EDTA]
[1]; [10]
  activity at 4200 µM: 109 ± 1%

## CC(C)CC(=O)N[C@H](C(=O)N[C@H](C(=O)N[C@@H](CC(C)C)[C@@H](O)CC(=O)N[C@@H](C)C(=O)N[C@@H](CC(C)C)[C@@H](O)CC(=O)O)C(C)C)C(C)C [Pepstatin, pepstatin] (Isovaleryl-VV[Sta]A[Sta]-OH)
[2]; pepstatin 1 × 10^-4 mol/l
  inhibition at 100 µM: 8 ± 4%

## NC(=O)CI [Iodoacetamide, iodoacetamide]
[2]; iodoacetamide 1 × 10^-3 mol/l
  inhibition at 1000 µM: 6 ± 13%

## O=S(=O)(F)Cc1ccccc1 [PMSF, phenylmethylsulphonyl fluoride]
[1]; PMSF 1 mM, preincubated 1 hour at room temperature
  Activity (%) (±SD, n = 3), hydrolysis of S-2586: 8 ± 3%

## CC(=O)N[C@@H](CC(C)C)C(=O)N[C@@H](CC(C)C)C(=O)N[C@H](C=O)CCCNC(=N)N [Leupeptin, leupeptin]
[3]; leupeptin 160 μM
  Inhibition of caseinolytic activity (zymography): not by leupeptin
[4]
  Effect on the in vitro cell shedding: no effect
[1]; [10]
  activity at 325 µM: 93 ± 3%

## chymostatin
[5]
  Inhibition of the transformation of anti-DG I positive components from 160 kD to 95 and 80 kD: inhibition
[3]; chymostatin 40 μM
  Inhibition of caseinolytic activity (zymography): could be inhibited
[6]; 37° C.
  Inhibition of S-2586 hydrolysis: caused inhibition
[6]
  Inhibitor concentration that caused 50% inhibition, SCCE compared with chymotrypsin and cathepsin G: more than three orders of magnitude higher
[7]
  Inhibition of S-2586 hydrolysis: caused inhibition
[8]
  Inhibition of S-2586 hydrolysis: caused inhibition
[9]; chymostatin 0.64 μM
  Activity (%), S-2586 hydrolysing activity: 74.9%
[9]; chymostatin 2.56 μM
  Activity (%), S-2586 hydrolysing activity: 33%
[9]; chymostatin 41 μM
  Activity (%), S-2586 hydrolysing activity: 1.9%
[4]; first step, takes place with or without EDTA
  Inhibition of the first step of cell shedding in vitro: could be inhibited
[4]; second step, only in the presence of EDTA
  Inhibition of the second step of cell shedding in vitro: could be inhibited
[1]; chymostatin 11 μM, 5% DMSO
  Activity (%) (±SD, n = 3), hydrolysis of S-2586: 66 ± 9%
[1]; chymostatin 55 μM, 5% DMSO
  Activity (%) (±SD, n = 3), hydrolysis of S-2586: 32 ± 0%
[1]; chymostatin 275 μM, 5% DMSO
  Activity (%) (±SD, n = 3), hydrolysis of S-2586: 15 ± 3%
